# Values quoted from earlier work in patent publication US20140179719A1, “NOVEL AMORPHOUS SOLID DISPERSIONS OF VALGANCICLOVIR HYDROCHLORIDE” (priority 2012, published 2014).
# Like-named read-outs stand apart in the source and are kept apart here.
# Conditions: ganciclovir administered orally
structure (smiles),measurement,setting,value
Nc1nc(O)c2ncn(COC(CO)CO)c2n1 [Ganciclovir],"bioavailability of ganciclovir, oral formulation",,6-10%
same,"bioavailability of ganciclovir, oral formulation",listed as gancilcovir,6%
